Measurements: article PMC4979471 (Cell Death Discovery, 2015)
Like-named read-outs stand apart in the source and are kept apart here.

Key:
Assay in all cases: Kinase selectivity, P33-radiolabeled assay
Format in all cases: biochemical
Details in all cases: 10 μM ATP
CDK4/cyclin D3 = biological target: T1, CDK4/cyclin D3 (Homo sapiens, UniProt P11802)
T1 construct: purchased Reaction Biology Corp
In short: (§1)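 Reactions contained 10 μM ATP and 10 μM test compound, each run in duplicate. Kinase activity is expressed as a percentage of DMSO-treated controls.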

P38b/MAPK11 = biological target: T2, P38b/MAPK11 (Homo sapiens, UniProt Q15759)
T2 construct: purchased Reaction Biology Corp
In short: as §1

CAMK2b = biological target: T3, CAMK2b (Homo sapiens, UniProt Q13554)
T3 construct: purchased Reaction Biology Corp
In short: as §1

MAPKAPK5/PRAK = biological target: T4, MAPKAPK5/PRAK (Homo sapiens, UniProt Q8IW41)
T4 construct: purchased Reaction Biology Corp
T4 sequence (Q8IW41 1-473): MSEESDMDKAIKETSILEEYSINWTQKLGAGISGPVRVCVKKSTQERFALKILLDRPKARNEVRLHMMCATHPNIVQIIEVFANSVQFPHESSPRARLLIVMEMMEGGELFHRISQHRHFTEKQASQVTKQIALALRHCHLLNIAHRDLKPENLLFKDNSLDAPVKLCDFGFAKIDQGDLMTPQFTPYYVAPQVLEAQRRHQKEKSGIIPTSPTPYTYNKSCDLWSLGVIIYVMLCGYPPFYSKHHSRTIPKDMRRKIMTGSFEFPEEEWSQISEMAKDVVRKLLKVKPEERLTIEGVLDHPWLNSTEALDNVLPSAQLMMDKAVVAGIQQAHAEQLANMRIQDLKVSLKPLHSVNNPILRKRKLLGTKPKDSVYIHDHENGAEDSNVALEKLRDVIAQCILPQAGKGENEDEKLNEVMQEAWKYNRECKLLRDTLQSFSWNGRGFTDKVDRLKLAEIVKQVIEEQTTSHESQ
In short: as §1

CDK2/Cyclin A1 = biological target: T5, CDK2/Cyclin A1 (Homo sapiens, UniProt P24941)
T5 construct: purchased Reaction Biology Corp
In short: as §1

PKCg = biological target: T6, PKCg (Homo sapiens, UniProt P05129)
T6 construct: purchased Reaction Biology Corp
In short: as §1

ERK1 = biological target: T7, ERK1 (Homo sapiens, UniProt P27361)
T7 construct: purchased Reaction Biology Corp
In short: as §1

CDK2/cyclin E = biological target: T8, CDK2/cyclin E (Homo sapiens, UniProt P24941)
T8 construct: purchased Reaction Biology Corp
In short: as §1

HIPK2 = biological target: T9, HIPK2 (Homo sapiens, UniProt Q9H2X6)
T9 construct: purchased Reaction Biology Corp
In short: as §1

FGFR2 = biological target: T10, FGFR2 (Homo sapiens, UniProt P21802)
T10 construct: purchased Reaction Biology Corp
In short: as §1

JAK2 = biological target: T11, JAK2 (Homo sapiens, UniProt O60674)
T11 construct: purchased Reaction Biology Corp
In short: as §1

CHK2 = biological target: T12, CHK2 (Homo sapiens, UniProt O96017)
T12 construct: purchased Reaction Biology Corp
In short: as §1

PKCd = biological target: T13, PKCd (Homo sapiens, UniProt Q05655)
T13 construct: purchased Reaction Biology Corp
In short: as §1

ABL2/ARG = biological target: T14, ABL2/ARG (Homo sapiens, UniProt P42684)
T14 construct: purchased Reaction Biology Corp
In short: as §1

NEK4 = biological target: T15, NEK4 (Homo sapiens, UniProt P51957)
T15 construct: purchased Reaction Biology Corp
In short: as §1

CDK5/p25 = biological target: T16, CDK5/p25 (Homo sapiens, UniProt Q00535)
T16 construct: purchased Reaction Biology Corp
In short: as §1

GRK3 = biological target: T17, GRK3 (Homo sapiens, UniProt P35626)
T17 construct: purchased Reaction Biology Corp
T17 sequence (P35626 1-688): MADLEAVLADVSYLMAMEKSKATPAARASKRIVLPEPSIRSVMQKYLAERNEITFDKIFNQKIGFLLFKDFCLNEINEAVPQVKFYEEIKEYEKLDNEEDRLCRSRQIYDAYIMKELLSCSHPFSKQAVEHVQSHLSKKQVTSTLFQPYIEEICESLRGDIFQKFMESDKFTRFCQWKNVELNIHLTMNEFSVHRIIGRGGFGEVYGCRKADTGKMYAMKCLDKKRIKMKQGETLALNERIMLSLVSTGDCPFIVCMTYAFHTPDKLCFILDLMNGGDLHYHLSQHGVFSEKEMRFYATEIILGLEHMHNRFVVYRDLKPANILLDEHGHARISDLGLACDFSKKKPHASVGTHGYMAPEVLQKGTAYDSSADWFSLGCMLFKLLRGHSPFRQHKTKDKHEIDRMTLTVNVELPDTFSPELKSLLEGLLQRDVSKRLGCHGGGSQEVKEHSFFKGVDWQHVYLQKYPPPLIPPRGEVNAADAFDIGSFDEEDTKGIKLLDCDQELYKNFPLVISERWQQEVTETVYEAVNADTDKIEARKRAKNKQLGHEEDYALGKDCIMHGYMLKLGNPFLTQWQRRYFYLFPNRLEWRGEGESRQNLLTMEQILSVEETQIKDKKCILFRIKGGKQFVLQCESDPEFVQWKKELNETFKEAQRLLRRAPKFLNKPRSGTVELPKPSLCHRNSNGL
In short: as §1

JNK3 = biological target: T18, JNK3 (Homo sapiens, UniProt P53779)
T18 construct: purchased Reaction Biology Corp
In short: as §1

[1] = read-out: % Enzyme Activity (relative to DMSO controls) AVG
[2] = read-out: % Enzyme Activity (relative to DMSO controls) Data 1
[3] = read-out: % Enzyme Activity (relative to DMSO controls) Data 2

T2 sequence (Q15759 whole entry): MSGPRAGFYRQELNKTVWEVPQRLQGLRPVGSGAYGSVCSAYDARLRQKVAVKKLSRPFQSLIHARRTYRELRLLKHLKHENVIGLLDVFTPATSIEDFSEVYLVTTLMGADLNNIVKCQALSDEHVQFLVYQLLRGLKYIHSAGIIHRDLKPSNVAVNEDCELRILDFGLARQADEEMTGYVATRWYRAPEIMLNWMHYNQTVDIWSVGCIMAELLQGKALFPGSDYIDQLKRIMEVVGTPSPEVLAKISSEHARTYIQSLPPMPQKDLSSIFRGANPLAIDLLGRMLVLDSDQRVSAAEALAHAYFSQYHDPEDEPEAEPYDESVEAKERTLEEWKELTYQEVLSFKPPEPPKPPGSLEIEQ
T14 sequence (P42684 whole entry): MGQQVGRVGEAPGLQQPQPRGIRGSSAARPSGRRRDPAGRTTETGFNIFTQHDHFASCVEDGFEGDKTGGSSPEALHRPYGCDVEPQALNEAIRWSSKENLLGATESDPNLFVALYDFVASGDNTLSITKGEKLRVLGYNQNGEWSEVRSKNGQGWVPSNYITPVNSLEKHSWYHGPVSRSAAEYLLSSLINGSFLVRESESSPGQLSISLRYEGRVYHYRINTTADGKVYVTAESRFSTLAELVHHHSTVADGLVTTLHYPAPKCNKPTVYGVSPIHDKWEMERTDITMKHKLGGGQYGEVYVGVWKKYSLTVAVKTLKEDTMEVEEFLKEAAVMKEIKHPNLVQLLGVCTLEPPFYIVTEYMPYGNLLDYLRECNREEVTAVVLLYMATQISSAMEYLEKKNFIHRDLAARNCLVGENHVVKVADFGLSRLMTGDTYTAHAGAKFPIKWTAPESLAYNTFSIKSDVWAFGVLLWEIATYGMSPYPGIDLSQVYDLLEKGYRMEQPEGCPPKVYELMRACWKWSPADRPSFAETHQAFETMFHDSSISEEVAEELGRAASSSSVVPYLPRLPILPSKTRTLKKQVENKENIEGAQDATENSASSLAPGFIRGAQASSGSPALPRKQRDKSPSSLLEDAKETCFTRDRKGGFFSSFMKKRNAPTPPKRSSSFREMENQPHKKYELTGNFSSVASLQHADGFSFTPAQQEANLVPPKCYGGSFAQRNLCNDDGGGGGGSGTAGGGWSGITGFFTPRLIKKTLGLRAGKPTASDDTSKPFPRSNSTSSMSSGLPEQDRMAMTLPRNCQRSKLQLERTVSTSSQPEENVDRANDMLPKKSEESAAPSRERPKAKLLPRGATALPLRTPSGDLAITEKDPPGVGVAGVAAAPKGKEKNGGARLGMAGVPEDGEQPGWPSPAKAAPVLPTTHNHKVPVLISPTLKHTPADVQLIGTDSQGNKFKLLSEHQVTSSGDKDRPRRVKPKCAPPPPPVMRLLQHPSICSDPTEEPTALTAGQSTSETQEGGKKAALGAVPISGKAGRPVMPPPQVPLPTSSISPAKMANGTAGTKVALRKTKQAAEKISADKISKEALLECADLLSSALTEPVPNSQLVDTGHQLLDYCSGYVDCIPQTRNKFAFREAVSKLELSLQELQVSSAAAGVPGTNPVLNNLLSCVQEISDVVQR
T15 sequence (P51957 whole entry): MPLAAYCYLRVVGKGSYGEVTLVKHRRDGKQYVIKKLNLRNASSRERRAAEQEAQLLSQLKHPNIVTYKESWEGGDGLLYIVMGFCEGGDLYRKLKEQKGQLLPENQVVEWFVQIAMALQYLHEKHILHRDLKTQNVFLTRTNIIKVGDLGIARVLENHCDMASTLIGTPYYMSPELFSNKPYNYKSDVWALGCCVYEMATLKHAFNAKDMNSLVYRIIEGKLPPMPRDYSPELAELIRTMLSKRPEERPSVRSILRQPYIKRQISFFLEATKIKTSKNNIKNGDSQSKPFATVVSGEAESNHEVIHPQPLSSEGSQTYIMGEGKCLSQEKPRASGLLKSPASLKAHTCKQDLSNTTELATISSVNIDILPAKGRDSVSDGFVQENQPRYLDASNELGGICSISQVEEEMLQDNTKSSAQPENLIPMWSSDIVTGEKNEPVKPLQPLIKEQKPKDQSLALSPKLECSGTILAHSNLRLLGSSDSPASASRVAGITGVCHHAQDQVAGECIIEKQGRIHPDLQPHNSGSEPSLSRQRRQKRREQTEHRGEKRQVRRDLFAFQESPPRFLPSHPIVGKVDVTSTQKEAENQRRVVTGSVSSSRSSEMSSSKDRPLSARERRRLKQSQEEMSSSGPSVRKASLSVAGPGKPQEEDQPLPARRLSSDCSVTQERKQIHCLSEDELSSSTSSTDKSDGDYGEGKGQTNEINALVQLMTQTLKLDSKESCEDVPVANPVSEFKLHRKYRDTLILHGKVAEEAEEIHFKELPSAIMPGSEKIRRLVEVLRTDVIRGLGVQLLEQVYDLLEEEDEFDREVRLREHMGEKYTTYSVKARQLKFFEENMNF
T1 sequence (P11802 whole entry): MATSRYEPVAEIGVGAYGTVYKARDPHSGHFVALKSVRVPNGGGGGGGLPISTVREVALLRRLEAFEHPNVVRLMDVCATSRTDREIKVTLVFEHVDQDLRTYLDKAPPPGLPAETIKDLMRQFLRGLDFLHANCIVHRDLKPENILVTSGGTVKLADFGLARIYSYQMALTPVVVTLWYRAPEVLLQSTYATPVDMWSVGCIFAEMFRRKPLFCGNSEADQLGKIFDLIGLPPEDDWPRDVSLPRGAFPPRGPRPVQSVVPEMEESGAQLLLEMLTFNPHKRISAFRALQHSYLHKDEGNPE
T1 sequence (P30281 whole entry partner): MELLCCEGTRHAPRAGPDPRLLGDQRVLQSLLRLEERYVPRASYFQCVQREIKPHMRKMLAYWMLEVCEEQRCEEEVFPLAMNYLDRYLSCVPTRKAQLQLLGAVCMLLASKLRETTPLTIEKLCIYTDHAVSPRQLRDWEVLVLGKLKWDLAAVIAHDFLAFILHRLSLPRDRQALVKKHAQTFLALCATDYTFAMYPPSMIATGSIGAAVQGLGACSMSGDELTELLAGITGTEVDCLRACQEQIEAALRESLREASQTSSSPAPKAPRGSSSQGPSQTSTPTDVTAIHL
T16 sequence (Q00535 whole entry): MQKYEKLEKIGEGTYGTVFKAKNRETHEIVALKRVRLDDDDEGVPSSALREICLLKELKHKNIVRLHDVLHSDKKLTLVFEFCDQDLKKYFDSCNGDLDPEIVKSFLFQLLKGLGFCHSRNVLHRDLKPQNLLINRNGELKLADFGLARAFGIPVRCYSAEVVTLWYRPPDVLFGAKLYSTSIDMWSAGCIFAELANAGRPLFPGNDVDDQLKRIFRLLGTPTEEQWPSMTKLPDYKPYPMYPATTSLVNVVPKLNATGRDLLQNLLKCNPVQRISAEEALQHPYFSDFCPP
T16 sequence (Q15078 99-307 partner limits assumed): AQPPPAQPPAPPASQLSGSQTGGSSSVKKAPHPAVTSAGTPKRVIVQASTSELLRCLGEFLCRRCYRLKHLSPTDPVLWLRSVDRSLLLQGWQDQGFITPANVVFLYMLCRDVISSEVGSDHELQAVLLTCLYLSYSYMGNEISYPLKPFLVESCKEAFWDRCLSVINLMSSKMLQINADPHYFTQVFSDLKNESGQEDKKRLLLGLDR
T12 sequence (O96017 whole entry): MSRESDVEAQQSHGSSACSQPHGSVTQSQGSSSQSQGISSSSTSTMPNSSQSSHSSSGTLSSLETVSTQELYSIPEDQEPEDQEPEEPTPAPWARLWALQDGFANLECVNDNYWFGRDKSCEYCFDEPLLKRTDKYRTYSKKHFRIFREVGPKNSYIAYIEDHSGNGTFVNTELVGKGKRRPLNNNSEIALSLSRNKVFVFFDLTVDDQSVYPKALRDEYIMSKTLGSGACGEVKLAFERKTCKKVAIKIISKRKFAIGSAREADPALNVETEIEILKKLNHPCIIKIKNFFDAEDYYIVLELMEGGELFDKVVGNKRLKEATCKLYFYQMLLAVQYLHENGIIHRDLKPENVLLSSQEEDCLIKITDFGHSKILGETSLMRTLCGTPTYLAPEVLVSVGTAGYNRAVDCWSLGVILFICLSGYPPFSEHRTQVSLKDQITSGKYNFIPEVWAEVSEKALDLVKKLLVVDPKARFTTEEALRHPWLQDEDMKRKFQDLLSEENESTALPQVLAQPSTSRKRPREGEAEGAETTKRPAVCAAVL
T7 sequence (P27361 whole entry): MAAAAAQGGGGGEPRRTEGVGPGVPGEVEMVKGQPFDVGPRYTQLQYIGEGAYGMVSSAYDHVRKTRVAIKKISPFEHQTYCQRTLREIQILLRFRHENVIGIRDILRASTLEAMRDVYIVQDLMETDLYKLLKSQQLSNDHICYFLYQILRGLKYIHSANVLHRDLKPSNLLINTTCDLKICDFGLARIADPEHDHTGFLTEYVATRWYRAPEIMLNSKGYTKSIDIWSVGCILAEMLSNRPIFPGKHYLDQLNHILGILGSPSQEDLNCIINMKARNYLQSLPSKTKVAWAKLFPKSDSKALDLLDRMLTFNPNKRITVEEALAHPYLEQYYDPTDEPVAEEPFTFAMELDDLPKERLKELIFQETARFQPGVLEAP
T18 sequence (P53779 whole entry): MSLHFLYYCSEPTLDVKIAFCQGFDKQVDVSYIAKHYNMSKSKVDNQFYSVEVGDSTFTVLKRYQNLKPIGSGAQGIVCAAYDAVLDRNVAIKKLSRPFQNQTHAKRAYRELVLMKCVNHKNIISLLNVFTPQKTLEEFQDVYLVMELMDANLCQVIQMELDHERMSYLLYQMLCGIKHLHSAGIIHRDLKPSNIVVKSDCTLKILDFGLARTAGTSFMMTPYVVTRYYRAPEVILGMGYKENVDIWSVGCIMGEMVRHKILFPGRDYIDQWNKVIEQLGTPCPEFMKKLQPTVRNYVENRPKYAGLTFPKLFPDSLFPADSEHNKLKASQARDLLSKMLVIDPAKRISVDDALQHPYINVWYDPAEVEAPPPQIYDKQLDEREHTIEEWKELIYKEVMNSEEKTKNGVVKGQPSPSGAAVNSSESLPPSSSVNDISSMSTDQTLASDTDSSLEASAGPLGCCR

Q: CC(C)(C)C(=O)N1N=CC[C@H]1c1ccccc1 [GSK′963] was tested. Which remaining activity at 10 µM (CDK4/cyclin D3; [1]) did it give?
A: 96.2%

Q: And the remaining activity at 10 µM (CDK4/cyclin D3; [2])?
A: 98.3%

Q: And the remaining activity at 10 µM (CDK4/cyclin D3; [3])?
A: 94.1%

Q: What about the remaining activity at 10 µM (P38b/MAPK11; [1]) of the same compound?
A: 102%

Q: And the remaining activity at 10 µM (P38b/MAPK11; [2])?
A: 104%

Q: What about the remaining activity at 10 µM (P38b/MAPK11; [3]) of the same compound?
A: 99.3%

Q: What about the remaining activity at 10 µM (CAMK2b; [1]) of the same compound?
A: 95.1%

Q: What about the remaining activity at 10 µM (CAMK2b; [2]) of the same compound?
A: 94.1%

Q: And the remaining activity at 10 µM (CAMK2b; [3])?
A: 96.1%

Q: And the remaining activity at 10 µM (MAPKAPK5/PRAK; [1])?
A: 116%

Q: And the remaining activity at 10 µM (MAPKAPK5/PRAK; [2])?
A: 115%

Q: What about the remaining activity at 10 µM (MAPKAPK5/PRAK; [3]) of the same compound?
A: 117%

Q: And the remaining activity at 10 µM (CDK2/Cyclin A1; [1])?
A: 107%

Q: And the remaining activity at 10 µM (CDK2/Cyclin A1; [2])?
A: 107%

Q: And the remaining activity at 10 µM (CDK2/Cyclin A1; [3])?
A: 107%

Q: What about the remaining activity at 10 µM (PKCg; [1]) of the same compound?
A: 88.5%

Q: And the remaining activity at 10 µM (PKCg; [2])?
A: 86.8%

Q: What about the remaining activity at 10 µM (PKCg; [3]) of the same compound?
A: 90.2%

Q: What about the remaining activity at 10 µM (ERK1; [1]) of the same compound?
A: 102%

Q: And the remaining activity at 10 µM (ERK1; [2])?
A: 98.8%

Q: What about the remaining activity at 10 µM (ERK1; [3]) of the same compound?
A: 104%

Q: What about the remaining activity at 10 µM (CDK2/cyclin E; [1]) of the same compound?
A: 95.2%

Q: What about the remaining activity at 10 µM (CDK2/cyclin E; [2]) of the same compound?
A: 95.7%

Q: And the remaining activity at 10 µM (CDK2/cyclin E; [3])?
A: 94.7%

Q: And the remaining activity at 10 µM (HIPK2; [1])?
A: 103%

Q: What about the remaining activity at 10 µM (HIPK2; [2]) of the same compound?
A: 101%

Q: And the remaining activity at 10 µM (HIPK2; [3])?
A: 104%

Q: What about the remaining activity at 10 µM (FGFR2; [1]) of the same compound?
A: 110%

Q: And the remaining activity at 10 µM (FGFR2; [2])?
A: 108%

Q: And the remaining activity at 10 µM (FGFR2; [3])?
A: 112%

Q: And the remaining activity at 10 µM (JAK2; [1])?
A: 105%

Q: What about the remaining activity at 10 µM (JAK2; [2]) of the same compound?
A: 105%

Q: And the remaining activity at 10 µM (JAK2; [3])?
A: 105%

Q: And the remaining activity at 10 µM (CHK2; [1])?
A: 105%

Q: And the remaining activity at 10 µM (CHK2; [2])?
A: 106%

Q: And the remaining activity at 10 µM (CHK2; [3])?
A: 104%

Q: What about the remaining activity at 10 µM (PKCd; [1]) of the same compound?
A: 106%

Q: What about the remaining activity at 10 µM (PKCd; [2]) of the same compound?
A: 106%

Q: What about the remaining activity at 10 µM (PKCd; [3]) of the same compound?
A: 107%

Q: And the remaining activity at 10 µM (ABL2/ARG; [1])?
A: 83%

Q: What about the remaining activity at 10 µM (ABL2/ARG; [2]) of the same compound?
A: 84.7%

Q: And the remaining activity at 10 µM (ABL2/ARG; [3])?
A: 81.4%

Q: What about the remaining activity at 10 µM (NEK4; [1]) of the same compound?
A: 102%

Q: What about the remaining activity at 10 µM (NEK4; [2]) of the same compound?
A: 102%

Q: What about the remaining activity at 10 µM (NEK4; [3]) of the same compound?
A: 102%

Q: And the remaining activity at 10 µM (CDK5/p25; [1])?
A: 97%

Q: What about the remaining activity at 10 µM (CDK5/p25; [2]) of the same compound?
A: 98.1%

Q: What about the remaining activity at 10 µM (CDK5/p25; [3]) of the same compound?
A: 95.8%

Q: What about the remaining activity at 10 µM (GRK3; [1]) of the same compound?
A: 97.9%

Q: And the remaining activity at 10 µM (GRK3; [2])?
A: 98.1%

Q: What about the remaining activity at 10 µM (GRK3; [3]) of the same compound?
A: 97.6%

Q: What about the remaining activity at 10 µM (JNK3; [1]) of the same compound?
A: 100%

Q: And the remaining activity at 10 µM (JNK3; [2])?
A: 101%

Q: What about the remaining activity at 10 µM (JNK3; [3]) of the same compound?
A: 100%
